# Values joined by “and” are separate entries in the source; they are usually repeats but may differ in a detail not shown here. Identical values can stand only once. Like-named read-outs stand apart in the source and are kept apart here.
# What was measured:
# [1] = system: A2780 (ovarian carcinoma); experiment: WST-1 cell proliferation assay, cytotoxicity screening; format: cell-based; settings: Homo sapiens, read-out: growth percent (GP) A2780
# Text: (§1) Selected human tumor and nontumor cell lines Jurkat (acute T-cell leukemia), MOLT-4 (acute lymphoblastic leukemia), A549 (lung carcinoma), HT-29 (colorectal adenocarcinoma), PANC-1 (pancreas epithelioid carcinoma), A2780 (ovarian carcinoma), HeLa (cervix adenocarcinoma), MCF-7 (breast adenocarcinoma), SAOS-2 (osteosarcoma) and MRC-5 (nontumor lung fibroblasts) were purchased from European Collection of Authenticated Cell Cultures (ECACC, Salisbury, UK) and cultured according to the provider’s culture method guidelines. […] The cells in low passage number (nontumor primary cell line MRC-5 was used for a maximum of 10 passages and cancer cell lines were used for a maximum of 20 passages) and in an exponential growth phase were used for this study.
# (§2) Each cell line was seeded at a previously established optimal density (1 × 10^3 to 50 × 10^3 cells per well) in a 96-well plate (TPP, Trasadingen, Switzerland) and cells were allowed to settle overnight. During screening tests for cytotoxicity, cells were treated with alkaloids at a final concentration of 10 μM for 48 h. Doxorubicin (Sigma-Aldrich, St. Louis, USA), at a concentration of 1 μM, was used as a positive control. At the end of the culture period, the WST-1 proliferation assay (Roche, Basel, Switzerland) was performed according to the manufacturer’s protocol. The absorbance was determined using a Tecan Spark microplate reader (Tecan, Männedorf, Switzerland). Each value is the mean of three independent experiments and represents the percentage of the proliferation of control, nontreated cells (100%). The growth percent (GP) value as the mean of the proliferation decrease was calculated for each cell line and derivative tested.
# [2] = system: A549 (lung carcinoma); experiment: as above; format: cell-based; settings: Homo sapiens, read-out: growth percent (GP) A549
# Text: as §1, §2
# [3] = system: HT-29 (colorectal adenocarcinoma); experiment: as above; format: cell-based; settings: Homo sapiens, read-out: growth percent (GP) HT-29
# Text: as §1, §2
# [4] = system: HeLa (cervix adenocarcinoma); experiment: as above; format: cell-based; settings: Homo sapiens, 48 h, read-out: growth percent (GP) HeLa
# Text: as §1, §2
# [5] = system: Jurkat (acute T-cell leukemia); experiment: as above; format: cell-based; settings: Homo sapiens, 48 h, read-out: growth percent (GP) Jurkat
# Text: as §1, §2
# [6] = system: MRC-5 (nontumor lung fibroblasts); experiment: as above; format: cell-based; settings: Homo sapiens, read-out: growth percent (GP) MRC-5
# Text: as §1, §2
# [7] = system: PANC-1 (pancreas epithelioid carcinoma); experiment: as above; format: cell-based; settings: Homo sapiens, read-out: growth percent (GP) PANC-1
# Text: as §1, §2
# [8] = system: SAOS-2 (osteosarcoma); experiment: as above; format: cell-based; settings: Homo sapiens, read-out: growth percent (GP) SAOS-2
# Text: as §1, §2
# [9] = system: MCF-7 (breast adenocarcinoma); experiment: as above; format: cell-based, human; settings: Homo sapiens, read-out: growth percent (GP) MCF-7
# Text: as §1, §2
# [10] = system: MOLT-4 (acute lymphoblastic leukemia); experiment: as above; format: cell-based, human; settings: Homo sapiens, read-out: growth percent (GP) MOLT-4
# Text: as §1, §2
# [11] = biological target: T1, hAChE (Homo sapiens, UniProt P22303); experiment: biochemical; format: biochemical; settings: recombinant AChE, Ellman, 37 °C
# T1 construct: purchased University Hradec Kralove, Department of Chemistry, Faculty of Science
# Method: (§3) The hAChE and hBChE activities were determined using a modified method of Ellman, as described by Hrabinova and co-workers against recombinant AChE and recombinant BChE (purchased from University Hradec Kralove, Department of Chemistry, Faculty of Science).[43] Other used chemicals were phosphate buffer solution (PBS, pH = 7.4), 5,5′-dithio-bis(2-nitrobenzoic) acid (Ellman’s reagent, DTNB), acetylthiocholine iodide (ATChI), butyrylthiocholine iodide (BTChI), and dimethyl sulfoxide (DMSO) (all chemicals were purchased from Sigma-Aldrich, Prague, Czech Republic).
# (§4) Briefly, 8.3 μL of the corresponding enzyme, 283 μL of 5 mM DTNB, and 8.3 μL of the sample dilution in DMSO in different concentrations were added to the microplate. These solutions were incubated for 5 min at 37 °C. Then, 33.3 μL of 10 mM substrate (ATChI or BTChI) was added to initiate the reaction, and the whole reaction mixture was incubated for 2 min at 37 °C. […] This difference after 1 min was used to calculate the percentage of inhibitory potential of the given derivative. Each measurement was repeated three times for every concentration of the compound. 8.3 μL DMSO was used as a blank. The % inhibition was calculated according to the following formula: [drawing 3] where ΔABl is the increase of absorbance of the blank sample and ΔASa is the increase of absorbance of the measured sample.
# [12] = biological target: T2, hBChE (Homo sapiens, UniProt P06276); experiment: biochemical; format: biochemical; settings: recombinant BChE, Ellman, 37 °C
# T2 construct: purchased University Hradec Kralove, Department of Chemistry, Faculty of Science
# Method: as §3, §4
# [13] = system: nine human tumor and one nontumor cell lines; experiment: Cytotoxicity screening across the whole panel of cell lines; format: cell-based; settings: Homo sapiens, read-out: GP value across the tested cell lines
# Text: Concerning the cytotoxicity of alkaloids isolated from Z. citrina, initially, Prakash and Vedanayaki investigated the MeOH extract of the bulbs for its in vitro cytotoxic activity using the MTT assay against three human cancer cell lines from different tissue origins: cervical cancer (HeLa), breast cancer (MCF-7), and oral squamous carcinoma (SCC-9). […] In this context, and to assess potential negative effects on human cell cultures, compounds 1, and 3–27 were screened in our study for cytotoxicity using a 10 μM single-dose regimen. The results were compared with those using the clinically approved antineoplastic agent doxorubicin at 1 μM. The effect on cell growth was investigated on nine human tumor and one nontumor cell lines, namely Jurkat (acute T-cell leukemia), MOLT-4 (acute lymphoblastic leukemia), A549 (lung carcinoma), HT-29 (colorectal adenocarcinoma), PANC-1 (pancreas epithelioid carcinoma), A2780 (ovarian carcinoma), HeLa (cervix adenocarcinoma), MCF-7 (breast adenocarcinoma), SAOS-2 (osteosarcoma) and MRC-5 (nontumor lung fibroblasts). […] No toxicity is valuable information, especially for compound 18, as it is a potent inhibitor of hAChE and hBChE.[27]
# Selected human tumor and nontumor cell lines Jurkat (acute T-cell leukemia), MOLT-4 (acute lymphoblastic leukemia), A549 (lung carcinoma), HT-29 (colorectal adenocarcinoma), PANC-1 (pancreas epithelioid carcinoma), A2780 (ovarian carcinoma), HeLa (cervix adenocarcinoma), MCF-7 (breast adenocarcinoma), SAOS-2 (osteosarcoma) and MRC-5 (nontumor lung fibroblasts) were purchased from European Collection of Authenticated Cell Cultures (ECACC, Salisbury, UK) and cultured according to the provider’s culture method guidelines. All cell lines were maintained at 37 °C in a humidified 5% carbon dioxide and 95% air incubator. The cells in low passage number (nontumor primary cell line MRC-5 was used for a maximum of 10 passages and cancer cell lines were used for a maximum of 20 passages) and in an exponential growth phase were used for this study.
# as §2
# [14] = A2780, c = 10 μM, 48 h, % of proliferation of nontreated control
# [15] = A549, c = 10 μM, 48 h, % of proliferation of nontreated control
# [16] = HT-29, c = 10 μM, 48 h, % of proliferation of nontreated control
# [17] = c = 10 μM, % of proliferation of nontreated control
# [18] = MRC5, c = 10 μM, 48 h, % of proliferation of nontreated control
# [19] = PANC-1, c = 10 μM, 48 h, % of proliferation of nontreated control
# [20] = SAOS-2, c = 10 μM, 48 h, % of proliferation of nontreated control
# [21] = MCF7, c = 10 μM, 48 h, % of proliferation of nontreated control
# [22] = MOLT-4, c = 10 μM, 48 h, % of proliferation of nontreated control
# [23] = 10 μM single dose, 48-h interval, all tested cell lines
# T1 sequence (P22303 32-614): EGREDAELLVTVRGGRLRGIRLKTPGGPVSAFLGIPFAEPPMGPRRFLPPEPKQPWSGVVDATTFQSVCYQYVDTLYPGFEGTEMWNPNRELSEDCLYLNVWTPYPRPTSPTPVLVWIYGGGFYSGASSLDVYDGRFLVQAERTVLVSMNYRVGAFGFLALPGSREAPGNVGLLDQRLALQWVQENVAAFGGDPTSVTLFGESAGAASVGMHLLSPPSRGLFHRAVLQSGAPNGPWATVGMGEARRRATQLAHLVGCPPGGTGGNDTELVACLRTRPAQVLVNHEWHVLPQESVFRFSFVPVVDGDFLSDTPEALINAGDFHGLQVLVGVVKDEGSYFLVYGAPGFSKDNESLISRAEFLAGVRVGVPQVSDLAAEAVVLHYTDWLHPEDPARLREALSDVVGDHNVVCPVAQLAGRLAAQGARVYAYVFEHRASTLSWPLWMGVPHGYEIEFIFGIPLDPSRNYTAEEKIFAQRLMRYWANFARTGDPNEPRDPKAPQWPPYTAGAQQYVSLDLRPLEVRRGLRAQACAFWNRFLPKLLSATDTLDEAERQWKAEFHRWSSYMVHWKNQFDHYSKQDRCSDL
# T2 sequence (P06276 29-602): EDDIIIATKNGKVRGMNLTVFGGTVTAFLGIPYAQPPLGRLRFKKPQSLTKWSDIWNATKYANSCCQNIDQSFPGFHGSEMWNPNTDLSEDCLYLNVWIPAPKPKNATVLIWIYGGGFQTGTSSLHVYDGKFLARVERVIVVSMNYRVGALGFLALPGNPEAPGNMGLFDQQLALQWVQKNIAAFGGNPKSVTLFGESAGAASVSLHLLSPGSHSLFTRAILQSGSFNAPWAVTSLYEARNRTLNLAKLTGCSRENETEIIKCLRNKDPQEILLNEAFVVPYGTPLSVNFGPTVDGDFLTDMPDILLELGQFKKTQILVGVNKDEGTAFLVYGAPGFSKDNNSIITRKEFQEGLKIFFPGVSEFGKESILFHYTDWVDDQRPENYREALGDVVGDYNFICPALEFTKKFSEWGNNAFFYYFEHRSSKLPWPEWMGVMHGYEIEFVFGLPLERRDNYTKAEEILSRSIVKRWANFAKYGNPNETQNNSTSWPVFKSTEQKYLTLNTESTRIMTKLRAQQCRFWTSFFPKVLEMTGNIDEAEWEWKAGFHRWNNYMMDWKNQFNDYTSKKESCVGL
smiles,measurement,setting,value
"COc1cc2c(cc1OC)[C@@]13C=C[C@@H](OC)C[C@@H]1N(C2)C[C@@H]3O [Compound 1, zephycitrine]",activity at 10 µM,[1]; [14],98%
same,activity at 10 µM,[2]; [15],100%
same,activity at 10 µM,[3]; [16],101%
same,activity at 10 µM,[4]; [17],97%
same,activity at 10 µM,[5]; [17],111%
same,activity at 10 µM,[6]; [18],107%
same,activity at 10 µM,[7]; [19],102%
same,activity at 10 µM,[8]; [20],101%
same,activity at 10 µM,[9]; [21],106%
same,activity at 10 µM,[10]; [22],99%
same,IC50,[11],> 100 µM
same,IC50,[12],> 100 µM
same,activity at 10 µM,[13]; [23],> 50%
"CCO[C@H]1c2cc(OC)c(OC)c(O)c2[C@@]23CC[C@H](OC)C[C@@H]2N1CC3 [Compound 3, 6-O-ethylzephyranine F]",activity at 10 µM,"[1]; A2780, 48 h",110%
same,activity at 10 µM,"[2]; A549, 48 h",103%
same,activity at 10 µM,"[3]; HT-29, 48 h",103%
same,activity at 10 µM,[4],108%
same,activity at 10 µM,[5],108%
same,activity at 10 µM,"[6]; MRC5, 48 h",104%
same,activity at 10 µM,"[7]; PANC-1, 48 h",101%
same,activity at 10 µM,"[8]; SAOS-2, 48 h",99%
same,activity at 10 µM,"[9]; MCF7, 48 h",97%
same,activity at 10 µM,"[10]; MOLT-4, 48 h",101%
same,IC50,[11],> 100 µM
same,IC50,[12],> 100 µM
same,activity at 10 µM,[13]; 48 h,> 50%
"CCO[C@H]1c2cc(OC)c(OC)cc2[C@@]23CC[C@H](OC)C[C@@H]2N1CC3 [Compound 4, 6-O-ethylzephyranine E]",activity at 10 µM,"[1]; A2780, 48 h",85%
same,activity at 10 µM,"[2]; A549, 48 h",100%
same,activity at 10 µM,"[3]; HT-29, 48 h",91%
same,activity at 10 µM,[4],109%
same,activity at 10 µM,[5],90%
same,activity at 10 µM,"[6]; MRC5, 48 h",99%
same,activity at 10 µM,"[7]; PANC-1, 48 h",88%
same,activity at 10 µM,"[8]; SAOS-2, 48 h",98%
same,activity at 10 µM,"[9]; MCF7, 48 h",96%
same,activity at 10 µM,"[10]; MOLT-4, 48 h",101%
same,IC50,[11],> 100 µM
same,IC50,[12],> 100 µM
same,activity at 10 µM,[13]; 48 h,> 50%
"COc1cc2c(cc1OC)[C@@H]1[C@H](O)[C@@H](OC)[C@H](O)C3=CCN(C2)[C@H]31 [Compound 6, narcissidine]",activity at 10 µM,[1]; [14],101%
same,activity at 10 µM,[2]; [15],113%
same,activity at 10 µM,[3]; [16],108%
same,activity at 10 µM,[4]; [17],123%
same,activity at 10 µM,[5]; [17],111%
same,activity at 10 µM,[6]; [18],101%
same,activity at 10 µM,[7]; [19],102%
same,activity at 10 µM,[8]; [20],101%
same,activity at 10 µM,[9]; [21],103%
same,activity at 10 µM,[10]; [22],101%
same,IC50,[11],> 100 µM
same,IC50,[12],> 100 µM
same,activity at 10 µM,[13]; [23],> 50%
"COc1ccc2c3c1O[C@H]1C[C@@H](O)CC[C@@]31CCNC2 [Compound 7, norlycoramine]",activity at 10 µM,"[1]; A2780, 48 h",97%
same,activity at 10 µM,"[2]; A549, 48 h",103%
same,activity at 10 µM,"[3]; HT-29, 48 h",100%
same,activity at 10 µM,[4],98%
same,activity at 10 µM,[5],103%
same,activity at 10 µM,"[6]; MRC5, 48 h",98%
same,activity at 10 µM,"[7]; PANC-1, 48 h",103%
same,activity at 10 µM,"[8]; SAOS-2, 48 h",97%
same,activity at 10 µM,"[9]; MCF7, 48 h",97%
same,activity at 10 µM,"[10]; MOLT-4, 48 h",99%
same,IC50,[11],> 100 µM and 155 µM
same,IC50,[12],> 100 µM
same,activity at 10 µM,[13]; 48 h,> 50%
"COc1cc2c(c(O)c1OC)[C@@]13CC[C@H](O)C[C@@H]1N(CC3)C2O (stereo partly drawn) [Compound 8, zephyranine C]",activity at 10 µM,"[1]; A2780, 48 h",105%
same,activity at 10 µM,"[2]; A549, 48 h",117%
same,activity at 10 µM,"[3]; HT-29, 48 h",121%
same,activity at 10 µM,[4],117%
same,activity at 10 µM,[5],109%
same,activity at 10 µM,"[6]; MRC5, 48 h",100%
same,activity at 10 µM,"[7]; PANC-1, 48 h",110%
same,activity at 10 µM,"[8]; SAOS-2, 48 h",111%
same,activity at 10 µM,"[9]; MCF7, 48 h",112%
same,activity at 10 µM,"[10]; MOLT-4, 48 h",98%
same,IC50,[11],> 100 µM
same,IC50,[12],> 100 µM
same,activity at 10 µM,[13]; 48 h,> 50%

# Source: paper PMC11443518, “Undescribed Amaryllidaceae Alkaloids from Zephyranthes citrina and Their Cytotoxicity” (Journal of Natural Products, 2024)
